# Source: patent publication US20250059174A1, “Pharmaceutical Compounds and Compositions as C-Kit Kinase Inhibitors” (Enanta Pharmaceuticals, Inc., priority 2023, published 2025)
# Target: Recombinant human c-KIT kinase (Homo sapiens (Human), UniProt P10721)
# Assay: c-KIT kinase chemiluminescence assay (ADP-Glo)
# Format: biochemical
# Settings: ATP 50 μM
# Procedure: The c-KIT Kinase Enzyme System (V4498) and ADP-Glo™ Kinase Assay kit (V6930) were purchased from Promega (Madison, WI). DMSO (D2650) was purchased from Sigma-Aldrich (Burlington, MA).
# Kinase Reaction: The kinase assay was based on the recommended protocol by c-KIT Kinase Enzyme System from Promega. Recombinant human c-KIT kinase in 3 μL of assay buffer (40 mM Tris pH 7.5, 20 mM MgCl2, 0.1 mg/mL BSA and 50 μM DTT) was added to the test or high control wells and 3 μL of assay buffer was added to the low control wells. The microplate was centrifuged at 800 rotations per minute (rpm) for 60 s and incubated at room temperature (RT) for 30 min. Next, 2 μL of buffered ATP and polyEY substrate solution was added to all wells. The microplate was centrifuged at 800 rpm for 60 s and incubated at RT for 2 h.
# ADP detection with ADP-Glo™ Kinase Assay: After the kinase reaction incubation, 5 μL of ADP-Glo™ reagent was added to all wells. The microplate was centrifuged at 800 rpm for 60 s and incubated at RT for 40 min. Ten microliter (10 μL) of Kinase Detection Reagent (Luciferin-Luciferase system) was then added to all wells. The microplate was centrifuged at 800 rpm for 60 s and incubated at RT for 60 min. Kinase activity was measured as increase in luminescence at RT in an Envision plate reader equipped with 560 nm filters and operating in endpoint mode. Data Analysis: Endpoint chemiluminescence from high and low control wells were used to calculate normalized c-KIT activity at various concentrations of test compounds. The normalized activities were fitted to inhibitor-versus-normalized response fit in GraphPad Prism 7 to determine half-maximal inhibitory concentration (IC50) and hill coefficient values (H).
# Where I is the inhibitor concentration and H is the Hill coefficient.
# Sequence of Recombinant human c-KIT kinase (P10721 26-976): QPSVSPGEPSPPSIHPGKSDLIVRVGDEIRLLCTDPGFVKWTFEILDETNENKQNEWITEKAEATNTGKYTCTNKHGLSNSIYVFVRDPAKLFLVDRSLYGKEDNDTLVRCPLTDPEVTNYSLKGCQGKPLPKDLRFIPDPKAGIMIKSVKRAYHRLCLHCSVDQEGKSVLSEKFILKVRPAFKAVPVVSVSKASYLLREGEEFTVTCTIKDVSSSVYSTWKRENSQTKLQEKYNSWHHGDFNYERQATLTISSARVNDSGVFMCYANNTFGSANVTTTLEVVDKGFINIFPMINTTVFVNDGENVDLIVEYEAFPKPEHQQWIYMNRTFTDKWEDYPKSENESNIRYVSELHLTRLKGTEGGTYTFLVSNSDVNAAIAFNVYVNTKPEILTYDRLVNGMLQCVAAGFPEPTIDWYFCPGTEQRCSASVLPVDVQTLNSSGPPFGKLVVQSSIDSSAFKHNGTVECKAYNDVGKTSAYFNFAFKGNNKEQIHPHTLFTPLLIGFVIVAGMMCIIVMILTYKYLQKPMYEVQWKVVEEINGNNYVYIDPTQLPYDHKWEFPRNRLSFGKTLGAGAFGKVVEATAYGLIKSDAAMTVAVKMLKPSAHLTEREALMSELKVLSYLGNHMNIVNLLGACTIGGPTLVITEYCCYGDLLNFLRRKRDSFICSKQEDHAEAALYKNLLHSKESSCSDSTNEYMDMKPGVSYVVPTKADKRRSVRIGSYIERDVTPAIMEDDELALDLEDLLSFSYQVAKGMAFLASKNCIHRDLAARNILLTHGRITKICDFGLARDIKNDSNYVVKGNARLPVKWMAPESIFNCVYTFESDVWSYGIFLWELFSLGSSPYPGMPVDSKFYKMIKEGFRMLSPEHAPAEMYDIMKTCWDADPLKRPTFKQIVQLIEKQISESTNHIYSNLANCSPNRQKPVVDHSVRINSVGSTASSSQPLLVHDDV
row,IC50,Structure (SMILES)
1,> 1 µM,Cc1ncc(-c2noc(C3CN(C(=O)[C@H]4CC4(F)F)C3)n2)cc1NC(=O)c1cnn2ccc(N3CC4(C3)CC(O)(C(F)F)C4)cc12 [Example 281-91]
2,< 0.1 µM,COC(=O)N1CC(c2nc(-c3ccc(C)c(NC(=O)c4cnc(-c5ccc6c(c5)CC(=O)N6)o4)c3)no2)C1 [Example 308-58]
3,0.1 to 1 µM,Cc1ccc(-c2noc([C@H]3C[C@@H]3F)n2)cc1NC(=O)c1cnc(-c2cccc3nc[nH]c23)o1 [Example 308-38]
4,0.1 to 1 µM,Cc1ccc(-c2noc(C3CN(C(=O)OC(C)C)C3)n2)cc1NC(=O)c1cnc(-c2ccc3c(c2)CC(=O)N3)o1 [Example 308-62]
5,< 0.1 µM,Cc1ccc(-c2noc([C@H]3C[C@@H]3F)n2)cc1NC(=O)c1cnn2ccc(-c3ccc(N)nc3C)cc12 [Example 171-29]
6,< 0.1 µM,COC12CC(c3nc(-c4ccc(C)c(NC(=O)c5cnn6ccc(N7CC8(COC8)C7)cc56)c4)no3)(C1)C2 [Example 272]
7,0.1 to 1 µM,Cc1ccc(-c2noc([C@H]3C[C@@H]3F)n2)cc1NC(=O)c1cnn2ccc(N3CC[C@@H](N)C3)cc12 [Example 197]
8,< 0.1 µM,Cc1ccc(-c2noc([C@H]3C[C@@H]3F)n2)cc1NC(=O)c1cnn2ccc(-c3cnc(NC4CC4)nc3)cc12 [Example 159]
9,< 0.1 µM,Cc1ccc(-c2noc([C@H]3C[C@@H]3F)n2)cc1NC(=O)c1cnc2n1CCc1ccccc1-2 [Example 100]
10,0.1 to 1 µM,Cc1ccc(-c2noc([C@H]3C[C@@H]3F)n2)cc1NC(=O)c1cnc(-c2ccc(-c3cnn(C)c3)cc2)o1 [Example 308-16]
11,0.1 to 1 µM,Cc1ncc(-c2ncc(C3CC3)cn2)cc1NC(=O)c1cnn2ccc(N3CC4(C3)CC(O)(C(F)F)C4)cc12 [Example 317]
12,0.1 to 1 µM,Cc1ccc(-c2noc([C@H]3C[C@@H]3F)n2)cc1NC(=O)c1cnn2ccc(N3CC4(CCN(CC(F)(F)F)C4)C3)cc12 [Example 188]
13,< 0.1 µM,[2H]C([2H])([2H])c1ccc(-c2noc([C@H]3C[C@@H]3C(F)F)n2)cc1NC(=O)c1cnn2ccc(N3CC4(COC4)C3)cc12 [Example 281-5]
14,0.1 to 1 µM,CNS(=O)(=O)c1cccc(-c2ncc(C(=O)Nc3cc(-c4noc([C@H]5C[C@@H]5F)n4)ccc3C)o2)c1 [Example 308-30]
15,< 0.1 µM,Cc1ccc(-c2noc([C@H]3C[C@@H]3F)n2)cc1NC(=O)c1cnn2ccc(N3CC(C(=O)NC4CC4)C3)cc12 [Example 241-10]
16,< 0.1 µM,COC1CC2(C1)CN(c1ccn3ncc(C(=O)Nc4cc(-c5noc([C@H]6C[C@@H]6F)n5)ccc4C)c3c1)C2 [Example 186]
17,0.1 to 1 µM,Cc1ccc(-c2noc(C3CCN(C(=O)[C@H]4C[C@@H]4F)C3)n2)cc1NC(=O)c1cnn2ccc(N3CC4(C3)CC(O)(C(F)F)C4)cc12 (some centres unmarked) [Example 281-96]
18,< 0.1 µM,Cc1ccc(-c2noc([C@H]3C[C@@H]3F)n2)cc1NC(=O)c1cnn2ccc(N3CC4(C3)CC(C)(O)C4)cc12 [Example 181]
19,> 1 µM,Cc1ccc(-c2noc([C@H]3C[C@@H]3F)n2)cc1NC(=O)c1cnc2n1CCC2 [Example 37]
20,> 1 µM,Cc1cc(C)c(-c2ccn3ncc(C(=O)Nc4cc(-c5noc([C@H]6C[C@@H]6F)n5)ccc4C)c3c2)c(C)c1 [Example 171-2]

row,Structure (SMILES),IC50
1,Cc1ccc(-c2noc([C@H]3C[C@@H]3F)n2)cc1NC(=O)c1cnn2ccc(N3C4CCC3CC(O)C4)cc12 (some centres unmarked) [Example 204],< 0.1 µM
2,Cc1ccc(-c2noc([C@H]3C[C@@H]3F)n2)cc1NC(=O)c1cnn2ccc(N3C4COCC3C4)cc12 [Example 189],< 0.1 µM

# Test system: M-07e cells
# Assay: M-07e cellular assay (SCF-mediated cell proliferation)
# Format: cell-based
# Settings: Homo sapiens, 72 hours, CellTiter Glo
# Procedure: M-07e cells (Creative Bioarray, CSC-C0249) which endogenously express human c-KIT were used to evaluate the effect of compounds on stem cell factor (SCF)-mediated cell proliferation. M-07e cells were cultured in growth media (RPMI+10% FBS+1% penicillin/streptomycin+10 ng/mL GM-CSF) at 5E5-1.5E6 cells/mL, replenishing media every 3-4 days. 1.5E4 cells were seeded per well in 384 well tissue culture treated plates in 20 μL assay media (RPMI+[…]+1% penicillin/streptomycin) without growth factor stimulation and incubated at 37° C. in a CO2 humidity-controlled incubator. Twenty-four hours later, three-fold serially diluted test compounds in media containing SCF (at the previously determined EC90) were added to the plated M-07e cells and incubated for an additional 72 hours. Cell viability was determined by adding 25 μL CellTiter Glo (Promega) to the cells and the luminescence was measured using a Perkin Elmer Envision plate reader. The EC50 was determined using GraphPad Prism. Percent cell growth was determined after normalizing the curve to the mean RLU high control (no compound control wells) at 100% and the mean RLU low control (no SCF control wells) at 0%.
row,Structure (SMILES),EC50
1,Cc1ncc(-c2noc(C3CN(C(=O)[C@H]4CC4(F)F)C3)n2)cc1NC(=O)c1cnn2ccc(N3CC4(C3)CC(O)(C(F)F)C4)cc12 [Example 281-91],> 1 µM
2,COC(=O)N1CC(c2nc(-c3ccc(C)c(NC(=O)c4cnc(-c5ccc6c(c5)CC(=O)N6)o4)c3)no2)C1 [Example 308-58],0.1 to 1 µM
3,Cc1ccc(-c2noc([C@H]3C[C@@H]3F)n2)cc1NC(=O)c1cnc(-c2cccc3nc[nH]c23)o1 [Example 308-38],0.1 to 1 µM
4,Cc1ccc(-c2noc(C3CN(C(=O)OC(C)C)C3)n2)cc1NC(=O)c1cnc(-c2ccc3c(c2)CC(=O)N3)o1 [Example 308-62],> 1 µM
5,Cc1ccc(-c2noc([C@H]3C[C@@H]3F)n2)cc1NC(=O)c1cnn2ccc(-c3ccc(N)nc3C)cc12 [Example 171-29],< 0.1 µM
6,COC12CC(c3nc(-c4ccc(C)c(NC(=O)c5cnn6ccc(N7CC8(COC8)C7)cc56)c4)no3)(C1)C2 [Example 272],< 0.1 µM
7,Cc1ccc(-c2noc([C@H]3C[C@@H]3F)n2)cc1NC(=O)c1cnn2ccc(N3CC[C@@H](N)C3)cc12 [Example 197],< 0.1 µM
8,Cc1ccc(-c2noc([C@H]3C[C@@H]3F)n2)cc1NC(=O)c1cnn2ccc(-c3cnc(NC4CC4)nc3)cc12 [Example 159],< 0.1 µM
9,Cc1ccc(-c2noc([C@H]3C[C@@H]3F)n2)cc1NC(=O)c1cnn2ccc(N3C4CCC3CC(O)C4)cc12 (some centres unmarked) [Example 204],< 0.1 µM
10,Cc1ccc(-c2noc([C@H]3C[C@@H]3F)n2)cc1NC(=O)c1cnc2n1CCc1ccccc1-2 [Example 100],0.1 to 1 µM
11,Cc1ccc(-c2noc([C@H]3C[C@@H]3F)n2)cc1NC(=O)c1cnn2ccc(N3C4COCC3C4)cc12 [Example 189],< 0.1 µM
12,Cc1ccc(-c2noc([C@H]3C[C@@H]3F)n2)cc1NC(=O)c1cnc(-c2ccc(-c3cnn(C)c3)cc2)o1 [Example 308-16],0.1 to 1 µM
13,Cc1ncc(-c2ncc(C3CC3)cn2)cc1NC(=O)c1cnn2ccc(N3CC4(C3)CC(O)(C(F)F)C4)cc12 [Example 317],< 0.1 µM
14,Cc1ccc(-c2noc([C@H]3C[C@@H]3F)n2)cc1NC(=O)c1cnn2ccc(N3CC4(CCN(CC(F)(F)F)C4)C3)cc12 [Example 188],0.1 to 1 µM
15,[2H]C([2H])([2H])c1ccc(-c2noc([C@H]3C[C@@H]3C(F)F)n2)cc1NC(=O)c1cnn2ccc(N3CC4(COC4)C3)cc12 [Example 281-5],< 0.1 µM
16,CNS(=O)(=O)c1cccc(-c2ncc(C(=O)Nc3cc(-c4noc([C@H]5C[C@@H]5F)n4)ccc3C)o2)c1 [Example 308-30],0.1 to 1 µM
17,Cc1ccc(-c2noc([C@H]3C[C@@H]3F)n2)cc1NC(=O)c1cnn2ccc(N3CC(C(=O)NC4CC4)C3)cc12 [Example 241-10],< 0.1 µM
18,COC1CC2(C1)CN(c1ccn3ncc(C(=O)Nc4cc(-c5noc([C@H]6C[C@@H]6F)n5)ccc4C)c3c1)C2 [Example 186],< 0.1 µM
19,Cc1ccc(-c2noc(C3CCN(C(=O)[C@H]4C[C@@H]4F)C3)n2)cc1NC(=O)c1cnn2ccc(N3CC4(C3)CC(O)(C(F)F)C4)cc12 (some centres unmarked) [Example 281-96],0.1 to 1 µM
20,Cc1ccc(-c2noc([C@H]3C[C@@H]3F)n2)cc1NC(=O)c1cnn2ccc(N3CC4(C3)CC(C)(O)C4)cc12 [Example 181],< 0.1 µM
21,Cc1ccc(-c2noc([C@H]3C[C@@H]3F)n2)cc1NC(=O)c1cnc2n1CCC2 [Example 37],> 1 µM
22,Cc1cc(C)c(-c2ccn3ncc(C(=O)Nc4cc(-c5noc([C@H]6C[C@@H]6F)n5)ccc4C)c3c2)c(C)c1 [Example 171-2],> 1 µM
